Laboratory results reported in patent US9233979B2, “Compounds that are ERK inhibitors” (Merck Sharp & Dohme Corp., priority 2012, dated 2016).

target: phosphorylated active hERK2 enzyme (Homo sapiens (Human), UniProt P28482); assay: Active Human ERK2 (hERK2) Activity Assay (IMAP-FP); type: biochemical; conditions: Table 6, 0.5 nM hERK2, 30 μM ATP, 10 point titration, read-out: AERK2 IC50
How it was run: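 IMAP fluorescence-polarization kinase assay: 0.5 nM activated hERK2 with 900 nM unlabeled plus 80 nM labeled peptide and 30 μM ATP, reacted 60 min. Quenched with IMAP beads in binding buffer with 24 mM NaCl; FP read after 60 min equilibration.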

Sequence of phosphorylated active hERK2 enzyme (P28482 whole entry): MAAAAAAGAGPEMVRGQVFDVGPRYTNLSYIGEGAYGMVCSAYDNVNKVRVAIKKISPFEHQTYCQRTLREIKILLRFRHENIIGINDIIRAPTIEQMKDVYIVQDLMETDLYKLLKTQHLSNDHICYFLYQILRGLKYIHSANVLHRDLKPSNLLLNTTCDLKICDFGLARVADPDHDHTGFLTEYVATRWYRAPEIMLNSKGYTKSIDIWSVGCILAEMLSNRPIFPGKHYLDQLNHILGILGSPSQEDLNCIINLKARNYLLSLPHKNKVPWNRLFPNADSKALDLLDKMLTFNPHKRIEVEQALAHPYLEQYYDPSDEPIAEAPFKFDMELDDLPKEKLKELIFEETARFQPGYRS

| Compound | IC50 [nM] |
| --- | --- |
| COC[C@@H](NC(=O)Nc1cc2[nH]nc(N3CC4CC3CO4)c2cn1)c1ccccc1 (stereo partly drawn) [Example 451, 1-[(1S)-2-methoxy-1-phenylethyl]-3-[3-(2-oxa-5-azabicyclo[2.2.1]-hept-5-yl)-1H-pyrazolo[4,3-c]-pyridin-6-yl]urea] | 3 |
| COc1nc(NC(=O)N[C@H](C)c2ccccc2)cc2[nH]nc(N)c12 [Example 452, 1-(3-amino-4-methoxy-1H-pyrazolo[4,3-c]-pyridin-6-yl)-3-[(1R)-1-phenylethyl]urea] | 0.7 |
| C[C@@H](NC(=O)Nc1cc2[nH]nc(N3CC4CCC(C3)O4)c2cn1)c1ccccc1 [Example 453, 1-[3-(8-oxa-3-azabicyclo[3.2.1]-oct-3-yl)-1H-pyrazolo[4,3-c]-pyridin-6-yl]-3-[(1R)-1-phenylethyl]urea] | 3.4 |
| CCNc1n[nH]c2cc(NC(=O)N[C@H](C)c3ccccc3)nc(Cl)c12 [Example 454, 1-[4-chloro-3-(ethylamino)-1H-pyrazolo[4,3-c]pyridin-6-yl]-3-[(1R)-1-phenylethyl]urea] | 11.8 |
| CC(C)(O)[C@@H](NC(=O)Nc1cc2[nH]nc(NC(=O)N3C[C@H]4COC[C@H]4C3)c2cn1)c1ccc(F)cc1 [Example 457, (3aR,6aS)-N-(6-(3-((S)-1-(4-fluorophenyl)-2-hydroxy-2-methylpropyl)-ureido)-1H-pyrazolo[4,3-c]-pyridin-3-yl)-tetrahydro-1H-furo[3,4-c]pyrrole-5(3H)-carboxamide] | 3.7 |
| C[C@@H](NC(=O)Nc1cc2[nH]nc(NC(=O)N3C[C@H]4COC[C@H]4C3)c2cn1)c1ccc(F)cc1 [Example 458, (3aR,6aS)-N-(6-(3-((R)-1-(4-fluorophenyl)ethyl)ureido)-1H-pyrazolo[4,3-c]pyridin-3-yl)tetrahydro-1H-furo[3,4-c]pyrrole-5(3H)-carboxamide] | 14.3 |
